Laboratory results taken from BindingDB's records for doi:10.1016/j.bmcl.2017.08.043 (Vanderbilt University, 2017).

Target: T1, Muscarinic acetylcholine receptor M4 (Homo sapiens, UniProt P08173)
T1 sequence (P08173 whole entry): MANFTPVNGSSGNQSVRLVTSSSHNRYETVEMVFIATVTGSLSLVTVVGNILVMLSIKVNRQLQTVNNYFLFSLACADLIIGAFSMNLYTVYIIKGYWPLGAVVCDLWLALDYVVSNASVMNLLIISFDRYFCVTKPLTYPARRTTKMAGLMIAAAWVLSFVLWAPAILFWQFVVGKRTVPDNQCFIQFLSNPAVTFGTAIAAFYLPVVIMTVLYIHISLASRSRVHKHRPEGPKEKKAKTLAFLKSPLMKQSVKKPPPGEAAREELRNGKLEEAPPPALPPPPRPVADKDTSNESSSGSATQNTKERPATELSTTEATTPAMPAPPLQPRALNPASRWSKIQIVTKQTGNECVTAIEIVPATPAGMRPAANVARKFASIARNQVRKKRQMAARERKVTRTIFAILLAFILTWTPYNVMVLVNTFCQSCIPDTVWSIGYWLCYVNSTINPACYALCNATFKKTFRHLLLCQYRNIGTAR
Assay: ChEBML_1696020
Excerpt: Positive allosteric modulation of human M4 receptor expressed in CHO cells co-expressing Gqi5 assessed as increase in acetylcholine-induced calcium mobilization

EC50: 897 nM
SMILES: N#Cc1cnc2ccc(F)cc2c1N1CCC(C(=O)NCc2ccccc2)CC1
